Legend:
Type in all cases: biochemical
G9a Y1154A mutant = experiment: Substrate peptide alkylation by G9a-Y1154A with SAM analogues; details: TAMRA-labeled H3K9 peptide; MALDI-MS
G9a Y1154G mutant = experiment: Substrate peptide benzylation by G9a-Y1154G
Y372G mutant of Suv39H2 = experiment: Benzylation of substrate peptide and full-length H3 by Suv39H2-Y372G
[1] = test system: Suv39H2 mutant / hole-modified CBX1; details: full-length H3 and purified mononucleosomes; Western blot

## Nc1ncnc2c1ncn2[C@@H]1O[C@H](C[S+](CC[C@H](N)C(=O)O)Cc2ccccc2)[C@@H](O)[C@H]1O (some centres unmarked) [benzyl-SAM]
G9a Y1154A mutant
  substrate modification by G9a-Y1154A: not efficient at incorporating benzyl modification
G9a Y1154G mutant; TAMRA-labeled H3K9 peptide, MALDI-MS
  substrate benzylation by G9a-Y1154G: complete substrate benzylation
G9a Y1154G mutant; under our assay conditions, Figure S2
  dibenzylation of substrate by G9a mutant: did not observe any dibenzylation
Y372G mutant of Suv39H2
  utilization of benzyl-SAM by Suv39H2-Y372G: efficiently utilized benzyl-SAM
[1]
  H3 signal after enrichment with hole-modified CBX1: signal for H3 only in the presence of benzyl-SAM
